{"source": "ChEMBL document CHEMBL5512654", "about": "“Discovery of novel Thymol-TPP antibiotics that eradicate MRSA persisters” (Eur J Med Chem, 2024)", "key": {"[1]": {"system": "Staphylococcus aureus", "assay": "Bactericidal activity against methicillin-resistant Staphylococcus aureus USA 3390 assessed as reduction in CFU at 2 times of MIC concentration measured upto 4 hrs by time-kill kinetics assay", "type": "functional"}, "[2]": {"system": "Staphylococcus aureus", "assay": "Bactericidal activity against methicillin-resistant Staphylococcus aureus USA 3390 assessed as reduction in CFU at 4 times of MIC concentration measured upto 1 hrs by time-kill kinetics assay", "type": "functional"}, "[3]": {"system": "Staphylococcus aureus", "assay": "Bactericidal activity against methicillin-resistant Staphylococcus aureus USA 3390 assessed as reduction in CFU at 1 times of MIC concentration measured after 1 hrs by time-kill kinetics assay", "type": "functional, organism-based"}, "[4]": {"system": "Staphylococcus aureus", "assay": "Induction of cell membrane permeability in methicillin-resistant Staphylococcus aureus USA 3390 assessed as increase absorption in leakage of 260 nm absorbing material at 1 to 8 times of MIC measured at 4 hrs", "type": "functional, organism-based"}, "[5]": {"system": "Cell membrane", "assay": "Induction of cell membrane damage in methicillin-resistant Staphylococcus aureus USA 3390 assessed as increase in fluorescence intensity at 1 to 8 times of MIC concentration measured at 5 mins by SYTOX green assay", "type": "cell membranes"}, "[6]": {"system": "Escherichia coli", "assay": "Antibacterial activity against Escherichia coli 53328 assessed as inhibition of bacterial growth measured after 18 hrs by microplate reader", "type": "functional", "settings": "read-out: MIC100"}, "[7]": {"system": "Staphylococcus aureus", "assay": "Antibacterial activity against methicillin-resistant Staphylococcus aureus USA 3390 assessed as eradication of persistence by measuring rapid killing effect 4 times of MIC concentration relative to control", "type": "functional"}, "[8]": {"system": "Staphylococcus aureus", "assay": "In vivo antibacterial efficacy in bioluminescent Staphylococcus aureus Xen29 infected in mouse topical infection model assessed as decrease in fluorescence intensity at 8 mg/kg, sc treated 16, 24, 36, 48, […] hrs post-infection measured after 84 hrs", "type": "functional, organism-based"}, "[9]": {"system": "Staphylococcus aureus", "assay": "Bactericidal activity against methicillin-resistant Staphylococcus aureus USA 3390 assessed as reduction in CFU at 1 times of MIC concentration measured for short time by time-kill kinetics assay", "type": "functional, organism-based"}, "[10]": {"system": "Cell membrane", "assay": "Induction of cell membrane permeability of methicillin-resistant Staphylococcus aureus USA 3390 persisters assessed as increase in fluorescence intensity at 4 to 8 ug/ml measured at 30 mins by SYTOX green assay relative to control", "type": "cell membranes", "settings": "dose 4-8 µg/ml"}, "[11]": {"system": "Acinetobacter baumannii", "assay": "Antibacterial activity against Acinetobacter baumannii ATCC 1318 assessed as inhibition of bacterial growth measured after 18 hrs by microplate reader", "type": "functional", "settings": "read-out: MIC100"}, "[12]": {"system": "Cell membrane", "assay": "Induction of cell membrane damage in methicillin-resistant Staphylococcus aureus USA 3390 assessed as rough/shrunken and wrinkled surface at logarithmic growth phase at 4 times of MIC measured after 1 hr by Scanning electron micrographic analysis", "type": "cell membranes"}, "[13]": {"system": "Cell membrane", "assay": "Induction of cell membrane depolarization of methicillin-resistant Staphylococcus aureus USA 3390 persisters assessed as increase in fluorescence intensity at 4 to 8 ug/ml measured at 10 mins by SYTOX green assay relative to control", "type": "cell membranes", "settings": "dose 4-8 µg/ml"}, "[14]": {"system": "Staphylococcus aureus", "assay": "In vivo antibacterial efficacy in bioluminescent Staphylococcus aureus Xen29 infected in mouse topical infection model assessed as wound scabbing at 8 mg/kg, sc treated 16, 24, 36, 48, […] hrs post-infection measured after 84 hrs", "type": "functional, organism-based"}, "[15]": {"system": "Staphylococcus aureus", "assay": "In vivo antibacterial efficacy in bioluminescent Staphylococcus aureus Xen29 infected in mouse topical infection model assessed as reduction in number of colonies at 8 mg/kg, sc treated 16, 24, 36, 48, […] hrs post-infection measured after 84 hrs relative to control", "type": "functional"}, "[16]": {"system": "Staphylococcus aureus", "assay": "Antibacterial activity against methicillin-resistant Staphylococcus aureus USA 3390 assessed as eradication of persistence by measuring rapid killing effect 8 times of MIC concentration measured upto 7 hrs", "type": "functional, organism-based"}, "[17]": {"assay": "Toxicity in mouse infected with bioluminescent Staphylococcus aureus Xen29 assessed as change in body weight at 8 mg/kg, sc treated 16, 24, 36, 48, […] and 72 hrs post-infection measured after 84 hrs", "type": "organism-based", "settings": "in vivo"}, "[18]": {"system": "Klebsiella pneumoniae", "assay": "Antibacterial activity against Klebsiella pneumonia ATCC 700603 assessed as inhibition of bacterial growth measured after 18 hrs by microplate reader", "type": "functional", "settings": "read-out: MIC100"}, "[19]": {"system": "Cell membrane", "assay": "Induction of cell membrane permeability in methicillin-resistant Staphylococcus aureus USA 3390 persisters assessed as increase in leakage (DNA) of 260 nm absorbing material at 1 to 8 times of MIC measured upto 5 hrs", "type": "cell membranes"}, "[20]": {"system": "Cell membrane", "assay": "Induction of plasma membrane damage in methicillin-resistant Staphylococcus aureus USA 3390 at logarithmic growth phase at 4 times of MIC measured after 1 hr by Scanning electron micrographic analysis", "type": "cell membranes"}, "[21]": {"system": "Pseudomonas aeruginosa", "assay": "Antibacterial activity against Pseudomonas aeruginosa ATCC 27853 assessed as inhibition of bacterial growth measured after 18 hrs by microplate reader", "type": "functional", "settings": "read-out: MIC100"}, "[22]": {"system": "Pseudomonas aeruginosa", "assay": "Antibacterial activity against Pseudomonas aeruginosa 535 assessed as inhibition of bacterial growth measured after 18 hrs by microplate reader", "type": "functional", "settings": "read-out: MIC100"}, "[23]": {"system": "Staphylococcus aureus", "assay": "Bactericidal activity against methicillin-resistant Staphylococcus aureus USA 3390 assessed as reduction in CFU at 4 to 8 times of MIC concentration measured after 24 hrs by time-kill kinetics assay", "type": "functional, organism-based"}, "[24]": {"system": "Cell membrane", "assay": "Induction of cell membrane damage in methicillin-resistant Staphylococcus aureus USA 3390 assessed as increase in fluorescence intensity at 1 to 8 times of MIC concentration measured upto 120 mins by SYTOX green assay relative to control", "type": "cell membranes"}, "[25]": {"system": "Staphylococcus aureus", "assay": "Induction of cell membrane permeability in methicillin-resistant Staphylococcus aureus USA 3390 assessed as increase in leakage of 260 nm absorbing material at 1 to 8 times of MIC", "type": "functional, organism-based", "settings": "time <= 6.0 hrs, TDE = time-dependent effect"}, "[26]": {"system": "Staphylococcus aureus", "assay": "Antibacterial activity against methicillin-resistant Staphylococcus aureus USA 3390 assessed as eradication of persistence by measuring rapid killing effect 4 times of MIC concentration measured upto 7 hrs", "type": "functional, organism-based"}, "[27]": {"system": "Staphylococcus aureus", "assay": "Bactericidal activity against methicillin-resistant Staphylococcus aureus USA 3390 assessed as reduction in CFU at 2 times of MIC concentration measured after 24 hrs by time-kill kinetics assay", "type": "functional, organism-based"}, "[28]": {"system": "Staphylococcus aureus", "assay": "Drug resistance, ratio of MIC for methicillin-resistant Staphylococcus aureus USA 3390 after […] exposure to MIC for methicillin-resistant Staphylococcus aureus USA 3390 after first exposure", "type": "functional"}, "[29]": {"system": "Escherichia coli", "assay": "Antibacterial activity against Escherichia coli ATCC 25922 assessed as inhibition of bacterial growth measured after 18 hrs by microplate reader", "type": "functional", "settings": "read-out: MIC100"}, "[30]": {"system": "Staphylococcus aureus", "assay": "Bactericidal activity against methicillin-resistant Staphylococcus aureus USA 3390 assessed as reduction in CFU at 1 times of MIC concentration measured after 24 hrs by time-kill kinetics assay", "type": "functional, organism-based"}, "[31]": {"system": "Staphylococcus aureus", "assay": "Bactericidal activity against methicillin-resistant Staphylococcus aureus USA 3390 assessed as reduction in CFU at 4 times of MIC concentration measured after 24 hrs by time-kill kinetics assay", "type": "functional, organism-based"}, "[32]": {"assay": "Cytotoxicity against human L02 cells incubated for 72 hrs by MTT dye reduction assay", "type": "toxicity, cell-based"}, "[33]": {"system": "Acinetobacter baumannii", "assay": "Antibacterial activity against Acinetobacter baumannii ATCC 19606 assessed as inhibition of bacterial growth measured after 18 hrs by microplate reader", "type": "functional", "settings": "read-out: MIC100"}, "[34]": {"system": "Cell membrane", "assay": "Induction of cell membrane depolarization in methicillin-resistant Staphylococcus aureus USA 3390 assessed as increase in fluorescence intensity at 1 to 8 times of MIC concentration measured upto 60 mins by DiSC3-5 dye based fluorescence analysis", "type": "cell membranes"}, "[35]": {"system": "Staphylococcus aureus", "assay": "Induction of cell membrane permeability in methicillin-resistant Staphylococcus aureus USA 3390 assessed as increase in leakage of 260 nm absorbing material at measured upto 6 hrs", "type": "functional, organism-based"}, "[36]": {"system": "Klebsiella pneumoniae", "assay": "Antibacterial activity against Klebsiella pneumonia 3026 assessed as inhibition of bacterial growth measured after 18 hrs by microplate reader", "type": "functional", "settings": "read-out: MIC100"}, "[37]": {"system": "Staphylococcus aureus", "assay": "Antibacterial activity against methicillin-resistant Staphylococcus aureus USA 3390 assessed as eradication of persistence by measuring rapid killing effect 8 times of MIC concentration relative to control", "type": "functional"}}, "note": "Activity calls are given as the source filed them. The rule behind the calls is not given here.", "data": [{"smiles": "Cc1cc(OC(=O)CCCCC[P+](c2ccccc2)(c2ccccc2)c2ccccc2)c(C(C)C)cc1-c1ccccc1.[Br-]", "values": [{"measurement": "Activity", "setting": "[1]", "result": ">=2 log10CFU/ml"}, {"measurement": "Activity", "setting": "[2]", "result": ">=2 log10CFU/ml"}, {"measurement": "Activity", "setting": "[3]", "result": "Active"}, {"measurement": "Activity", "setting": "[4]", "result": "Active"}, {"measurement": "Activity", "setting": "[5]", "result": "Active"}, {"measurement": "MIC", "setting": "[6]", "result": 8, "unit": "µg/mL"}, {"measurement": "Activity", "setting": "[7]", "result": 99.99, "unit": "%"}, {"measurement": "Activity", "setting": "[8]", "result": "Active"}, {"measurement": "Activity", "setting": "[9]", "result": "Active"}, {"measurement": "Activity", "setting": "[10]", "result": "Active"}, {"measurement": "MIC", "setting": "[11]", "result": 8, "unit": "µg/mL"}, {"measurement": "Activity", "setting": "[12]", "result": "Active"}, {"measurement": "Activity", "setting": "[13]", "result": "Active"}, {"measurement": "Activity", "setting": "[14]", "result": "Active"}, {"measurement": "fold change (FC)", "setting": "[15]", "result": 10}, {"measurement": "Activity", "setting": "[16]", "result": "Active"}, {"measurement": "Activity", "setting": "[17]", "result": "Non-Toxic"}, {"measurement": "MIC", "setting": "[18]", "result": 8, "unit": "µg/mL"}, {"measurement": "Activity", "setting": "[19]", "result": "Active"}, {"measurement": "Activity", "setting": "[20]", "result": "Active"}, {"measurement": "MIC", "setting": "[21]", "result": 32, "unit": "µg/mL"}, {"measurement": "MIC", "setting": "[22]", "result": 64, "unit": "µg/mL"}, {"measurement": "Activity", "setting": "[23]", "result": "Active"}, {"measurement": "Activity", "setting": "[24]", "result": "Active"}, {"measurement": "Activity", "setting": "[25]", "result": "Tde"}, {"measurement": "Activity", "setting": "[26]", "result": "Active"}, {"measurement": "Activity", "setting": "[27]", "result": "inactive"}, {"measurement": "Ratio", "setting": "[28]", "result": 4}, {"measurement": "MIC", "setting": "[29]", "result": 8, "unit": "µg/mL"}, {"measurement": "Activity", "setting": "[30]", "result": "Active"}, {"measurement": "Activity", "setting": "[31]", "result": "Active"}, {"measurement": "IC50 at 72 h", "setting": "[32]", "result": 34.3, "unit": "µg/mL"}, {"measurement": "MIC", "setting": "[33]", "result": 8, "unit": "µg/mL"}, {"measurement": "Activity", "setting": "[34]", "result": "Active"}, {"measurement": "Activity", "setting": "[35]", "result": "Dose-Dependent Effect"}, {"measurement": "MIC", "setting": "[36]", "result": 16, "unit": "µg/mL"}, {"measurement": "Activity", "setting": "[37]", "result": 99.999, "unit": "%"}]}]}
